Results as given in a melting point compilation (Tetko et al.; mined from patent text by program, amines drawn as free bases though some values may be those of a salt).

**Q.** For `O=CN(O)C(CCCO)CS(=O)(=O)c1ccc(-c2ccc(Cl)cc2)cc1` (configuration not stated), which melting point is on record?
**A.** 160 °C

**Q.** With `CCOC(=O)CSc1nc(=O)[nH]cc1F` as the compound, how does the melting point read?
**A.** 156 °C

**Q.** For `N#CCC(C#N)NNc1ccccc1` (configuration not stated), which melting point is on record?
**A.** 97 to 98 °C

**Q.** For `Cc1cc(NC(=O)c2cn(-c3ccccc3)c3ccccc3c2=O)no1`, which melting point is on record?
**A.** 163 to 164 °C

**Q.** With `Cc1ccccc1Oc1cccc(NC(=O)c2ccn3c2CSC3c2cccnc2)c1` (configuration not stated) as the compound, how does the melting point read?
**A.** 180 °C

**Q.** Which melting point does the source give for `CCCSc1ncc(CC(Cc2ccccc2)C(=O)O)n1Cc1ccccc1Cl` (configuration not stated) here?
**A.** 123 to 127 °C

**Q.** Which melting point does the source give for `O=c1[nH]c(=O)n(CCCCN2CCC(OC(c3ccccc3)c3ccccc3)CC2)c2cc([N+](=O)[O-])ccc12` here?
**A.** 214 to 215 °C

**Q.** Which melting point does the source give for `O=C(Nc1ccc2cc(CN3CCCCC3)ccc2c1)c1ccc(-c2ccc(Cl)cc2)nc1` here?
**A.** 228 to 229 °C

**Q.** Which melting point does the source give for `C[C@@H](Cn1ncc2ccc3c(c21)O[C@@H](CO)CO3)NC(=O)OCc1ccccc1` here?
**A.** 116 to 117 °C

**Q.** With `Cc1ccsc1C(=O)N1CCC(Sc2ccc(CCNC[C@H](O)COc3ccc(O)cc3)cc2)CC1` as the compound, how does the melting point read?
**A.** 135 to 144 °C

**Q.** With `CC(C)(C(=O)O)c1ccc(OCc2ccccc2)cc1` as the compound, how does the melting point read?
**A.** 128 to 130 °C

**Q.** For `O=C(NC(=S)Nc1nc(-c2ccc3c(c2)CCCC3)cs1)c1cccc2ccccc12`, which melting point is on record?
**A.** 216 to 217 °C

**Q.** For `CNc1nc(C)c(C(C)=O)s1`, which melting point is on record?
**A.** 164 to 165 °C

**Q.** With `O=C(c1ccccc1)[C@]1([N+](=O)[O-])[C@H](c2ccccc2)[C@H]2C[C@H](O)[C@@H]1C2` (relative stereo) as the compound, how does the melting point read?
**A.** 168 to 169 °C

**Q.** For `Nc1ccc(C23CC(C2)C(=O)N(Cc2ccccc2)C3=O)cc1`, which melting point is on record?
**A.** 164 to 166 °C

**Q.** For `CC(C)(C)NC(=O)[C@@H]1CSCN1C[C@@H](O)[C@H](Cc1ccccc1)NC(=O)OCc1ccccc1`, which melting point is on record?
**A.** 62 to 65 °C

**Q.** Which melting point does the source give for `N#CC(C(=O)Nc1ccon1)C(=O)c1nn(-c2ccccc2)c2c1CSc1ccccc1-2` (configuration not stated) here?
**A.** 228 to 230 °C

**Q.** For `Cc1cn2cc(NC(=O)c3cc4cc(F)ccc4n3Cc3cccc(F)c3)ccc2n1`, which melting point is on record?
**A.** 200 to 203 °C

**Q.** With `NS(=O)(=O)c1ccc(-c2oc3ccc(F)cc3c(=S)c2-c2ccc(F)cc2)cc1` as the compound, how does the melting point read?
**A.** 224 to 225 °C

**Q.** Which melting point does the source give for `COc1ccc(CC(C)=O)cc1S(N)(=O)=O` here?
**A.** 194 to 196 °C

**Q.** With `CC(c1ccccc1)C(Oc1c(Br)cc(-c2c3ccccc3c(Br)c3sc4ccccc4c23)cc1Br)C(=O)O` (configuration not stated) as the compound, how does the melting point read?
**A.** 115 to 120 °C

**Q.** With `COc1cc2c(cc1OC)C(=O)CCCO2` as the compound, how does the melting point read?
**A.** 87 to 88 °C

**Q.** With `CCN(CC)Cc1cc(NC(C)=O)c2c(c1O)CCCC2` as the compound, how does the melting point read?
**A.** 157 to 159 °C

**Q.** Which melting point does the source give for `COc1ccc(C2(CCN3CCC(C(N)=O)(c4ccccc4)CC3)CCN(C(=O)c3cc(OC)c(OC)c(OC)c3)C2)cc1OC` (configuration not stated) here?
**A.** 60 to 62 °C

**Q.** For `C[C@@H]1OC(=O)N(C(=O)O)[C@H]1c1ccc(F)c(F)c1` (relative stereo), which melting point is on record?
**A.** 80 to 83 °C

**Q.** Which melting point does the source give for `C1=CC2=NCCN2C=C1` here?
**A.** 178 to 180 °C

**Q.** Which melting point does the source give for `Cc1cccc2oc(=O)c(=O)[nH]c12` here?
**A.** 247 to 249 °C

**Q.** For `CC(C)(C)c1cc(-c2csc(CNC(=O)Cc3ccccc3)n2)cc(C(C)(C)C)c1O`, which melting point is on record?
**A.** 124 to 125 °C

**Q.** With `Cc1c(C(=O)Nc2ccc(OCCN3CCOCC3)c(C#N)c2)cnn1-c1ccc(C(F)(F)F)cc1` as the compound, how does the melting point read?
**A.** 191 to 193 °C

**Q.** Which melting point does the source give for `Cc1nc2sccn2c(=O)c1CCN1CCC2Nc3ccccc3C2C1` (configuration not stated) here?
**A.** 152 °C

**Q.** Which melting point does the source give for `Cc1ccc(C(=O)c2ccc(F)cc2C)c(F)c1` here?
**A.** 29 to 31 °C

**Q.** For `COC(=O)C(=O)c1ccc(OCCOc2ccccc2F)cc1`, which melting point is on record?
**A.** 112 to 113 °C

**Q.** With `CCOC(=O)CCc1ccc(CCNS(=O)(=O)CCc2ccc(Cl)cc2)cc1` as the compound, how does the melting point read?
**A.** 77 to 78 °C

**Q.** Which melting point does the source give for `Fc1cccc(CSc2nnc(-c3ccc4c(c3)CCO4)o2)c1` here?
**A.** 128 to 129 °C

**Q.** With `CCc1cccc(NC(=O)NC2CC(C3CCCCC3)c3ccccc3N(CC(=O)NC(C)(C)C)C2=O)c1` (configuration not stated) as the compound, how does the melting point read?
**A.** 145 to 155 °C

**Q.** With `O=P(O)(O)C(F)(F)c1ccc(CN(Cc2ccc(C(F)(F)P(=O)(O)O)cc2)S(=O)(=O)c2ccccc2Cl)cc1` as the compound, how does the melting point read?
**A.** 170 to 172 °C

**Q.** For `O=C/C=C/c1ccc(C(F)(F)F)cc1`, which melting point is on record?
**A.** 60 to 61 °C
